Test results from article PMC5253651 (Nature Communications, 2017).
Read-outs that look alike come from different tables or passages of the source. Marks after values point to notes of the source that are not given here.

Columns and labels:
human FPPS [1] = biological target: T1, human FPPS (Homo sapiens, UniProt P14324); assay: Isothermal titration calorimetry (ITC) binding assay; design: His6 (N); made in house; host or cells: Escherichia coli BL21 (DE3)
T1 sequence (P14324 1-353 isoform P14324-2): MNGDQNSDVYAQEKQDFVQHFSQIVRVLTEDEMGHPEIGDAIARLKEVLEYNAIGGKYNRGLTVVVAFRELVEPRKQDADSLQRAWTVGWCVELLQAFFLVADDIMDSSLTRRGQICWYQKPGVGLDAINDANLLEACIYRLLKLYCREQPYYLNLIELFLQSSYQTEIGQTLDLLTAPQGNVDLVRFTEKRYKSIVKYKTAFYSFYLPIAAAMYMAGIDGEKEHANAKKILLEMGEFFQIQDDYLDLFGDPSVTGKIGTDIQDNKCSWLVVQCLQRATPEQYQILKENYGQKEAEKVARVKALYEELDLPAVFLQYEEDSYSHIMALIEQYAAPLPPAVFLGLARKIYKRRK
Description: Ligand (DMAPP, GPP and FPP) and MgCl2 solutions were prepared in the used dialysate. Each titration experiment consisted of a first 1 μl injection followed by 18 2 μl injections of a ligand solution into the 204.1 μl calorimetric cell loaded with the enzyme solution. […] When added, the concentration of MgCl2 was 5 mM. Heats of dilution were measured by injecting the ligands into the buffer alone and subtracted from the corresponding titration data. The data were fitted to the single-site-binding model implemented in the Origin software package provided with the ITC instrument.

FPPS = details: cited from earlier work
human FPPS [2] = biological target: T1, human FPPS
Description: Reaction calorimetry was also carried out at 30 °C with a MicroCal iTC200 system. The enzyme and substrates were prepared in the reaction buffer (50 mM HEPES (pH 7.5), 150 mM NaCl, 2 mM MgCl2, 2 mM β-mercaptoethanol and 5% glycerol) in the same way described for the binding experiments. […] When added, FPP was preincubated together with the enzyme. The concentration of the enzyme in the cell was 400–500 nM, and those of the substrates in the syringe were 0.4–4 mM. Heats of dilution were measured and subtracted from the actual reaction data. […] Briefly, The molar reaction enthalpy (ΔH) was determined first based on the relationship:
in which Q is the total heat associated with producing n moles of product, [S0] is the starting concentration of the limiting substrate and V is the volume of the calorimetric cell. Q was calculated by integrating the thermal power (dQ/dt) measured over the complete course of reaction, whereas [S0] and V were known. Once ΔH was determined, the substrate concentration ([S]) could be determined as a function of time as described in the equation:
The rate of reaction could be calculated from dQ/dt for any given time point:
For kinetic measurements, the temporal experimental heat flow must be monitored accurately. […] Km and Vmax values were determined by fitting the rate data to the following equation[29]:

N-BP-bound FPPS complex = details: binding of IPP to an N-BP-bound FPPS complex; cited from earlier work
[3] = ITC, 30 °C, titrated in absence of Mg2+, triplicate
[4] = ITC, 30 °C, titrated in absence of Mg2+, triplicate, read-out: Kd
[5] = ITC, 30 °C, titrated in presence of Mg2+ (5 mM MgCl2), triplicate
[6] = ITC, 30 °C, titrated in presence of Mg2+ (5 mM MgCl2), triplicate, read-out: Kd

SMILES | TΔS (human FPPS [1]; [3]) [kcal/mol] | n (molar binding ratio) (human FPPS [1]; [3]) | ΔH (human FPPS [1]; [3]) [kcal/mol] | Kd (human FPPS [1]; [4]) [µM] | TΔS (human FPPS [1]; [5]) [kcal/mol] | n (molar binding ratio) (human FPPS [1]; [5]) | ΔH (human FPPS [1]; [5]) [kcal/mol] | Kd (human FPPS [1]; [6]) [µM] | other results
CC(C)=CCC/C(C)=C/COP(=O)(O)OP(=O)(O)O [GPP, geranyl pyrophosphate] | 1.8 | 0.80±0.03 | -5.3 ± 0.2 | 7.6 ± 0.9 | 0.2 | 0.79±0.01 | -7.7 ± 0.2 | 2.1 ± 0.3 | Km (FPPS; previously reported Km value for GPP): 2070 nM
CC(C)=CCOP(=O)(O)OP(=O)(O)O [DMAPP, dimethylallyl pyrophosphate] | 1.6 | 1 ^† | -4.5 ± 0.2 | – | 2.1 | 0.87±0.01 | -5.8 ± 0.1 | – | Kd (human FPPS [1]; Kd, ITC, 30 °C, titrated in absence of Mg2+, triplicate): 43.7 ± 4.3 µM; Kd (human FPPS [1]; Kd, ITC, 30 °C, titrated in presence of Mg2+ (5 mM MgCl2), triplicate): 2.2 ± 0.2 µM
CC(C)=CCC/C(C)=C/CC/C(C)=C/CO[P@@](=O)(O)OP(=O)(O)O (stereo in doubt) [FPP, farnesyl pyrophosphate] | – | – | – | 5.3 ± 0.4 | – | – | – | 6 ± 0.6 | Kd (human FPPS [1]; summary of ITC values in absence and presence of Mg2+, read-out: Kd for binding to the allosteric pocket): 5 to 6 µM
O=P(O)(O)OP(=O)(O)O [PPi] | – | – | – | – | – | – | – | – | binding affinity by ITC (result in words) (human FPPS [1]; both in the presence and absence of Mg2+): did not demonstrate an apparent binding event
CC(C)=CCC/C(C)=C/CC/C(C)=C/COP(=O)(O)OP(=O)(O)O [FPP, farnesyl pyrophosphate] | 1.8 | 1.12±0.01 | -5.5 ± 0.1 | – | 1.7 | 1.17±0.02 | -5.6 ± 0.1 | – | effect on FPPS reaction rate curve (product inhibition) (human FPPS [2]; same excess experiment, reaction with an initial amount of FPP preincubated with enzyme): depressed rate curve
C=C(C)CCO[P@@](=O)(O)OP(=O)(O)O [IPP, isopentenyl pyrophosphate] | – | – | – | – | – | – | – | – | Kd (N-BP-bound FPPS complex): 900 nM; effect on enzyme activity (substrate inhibition) (human FPPS [2]; experiment carried out in excess of IPP): significantly reduced enzyme activity; Km (FPPS; literature value for IPP): 1800 nM
